Assay results as given in ChEMBL document CHEMBL1921678, “The discovery of novel cyclohexylamide CCR2 antagonists” (Bioorg Med Chem Lett, 2011).
Activity calls are given as the source filed them. The calls are words filed in the database; no cut-off is given here.

Columns and labels:
[1] = biological target: C-C chemokine receptor type 2 (Homo sapiens, UniProt P41597); experiment: Antagonist activity at human CCR2; assay type: functional
[2] = biological target: T1, Voltage-gated inwardly rectifying potassium channel KCNH2 (Homo sapiens, UniProt Q12809); experiment: Inhibition of human ERG
[3] = biological target: C-C chemokine receptor type 2 (Mus musculus) (UniProt P51683); experiment: Antagonist activity at mouse CCR2; assay type: functional
[4] = tested on: Mus musculus; experiment: Antiinflammatory activity in human CCR2 transgenic C57BL/6 mouse assessed as reduction of thioglycollate-induced peritonitis at 30 mg/kg, po; assay type: functional, organism-based; set-up: dose 30 mg/kg
[5] = Volume of distribution at steady state in mouse at 2 mg/kg, iv; assay type: ADME, organism-based; set-up: dose 2 mg/kg, route intravenous; conditions: in vivo, read-out: Vdss
[6] = biological target: T1, Voltage-gated inwardly rectifying potassium channel KCNH2; experiment: Binding affinity to human ERG
[7] = tested on: Cavia porcellus; experiment: Cardiotoxicity in guinea pig hemodynamic model assessed as QT interval at 10 mg/kg, iv; assay type: toxicity, organism-based; set-up: dose 10 mg/kg, route intravenous; conditions: in vivo
[8] = Clearance in mouse at 2 mg/kg, iv; assay type: ADME, organism-based; set-up: dose 2 mg/kg, route intravenous; conditions: in vivo
[9] = tested on: Cavia porcellus; experiment: Cardiotoxicity in guinea pig hemodynamic model assessed as PR interval at 10 mg/kg, iv; assay type: toxicity, organism-based; set-up: dose 10 mg/kg, route intravenous; conditions: in vivo
[10] = Half life in mouse at 2 mg/kg, iv; assay type: ADME, organism-based; set-up: dose 2 mg/kg, route intravenous; conditions: in vivo
[11] = Half life in mouse at 10 mg/kg, po; assay type: ADME, organism-based; set-up: dose 10 mg/kg, route oral; conditions: in vivo
[12] = tested on: Cavia porcellus; experiment: Cardiotoxicity in guinea pig hemodynamic model assessed as mean arterial pressure at 10 mg/kg, iv; assay type: toxicity, organism-based, Artery; set-up: dose 10 mg/kg, route intravenous; conditions: in vivo
[13] = AUC in mouse at 10 mg/kg, po; assay type: ADME, organism-based; set-up: dose 10 mg/kg, route oral; conditions: plasma
[14] = Initial plasma concentration in mouse at 2 mg/kg, iv; assay type: ADME, organism-based; set-up: dose 2 mg/kg, route intravenous
[15] = Oral bioavailability in mouse at 10 mg/kg; assay type: ADME, organism-based; conditions: in vivo
[16] = biological target: T1, Voltage-gated inwardly rectifying potassium channel KCNH2; experiment: Inhibition of human ERG by patch clamp assay
[17] = tested on: Cavia porcellus; experiment: Cardiotoxicity in guinea pig hemodynamic model assessed as QRS duration at 10 mg/kg, iv; assay type: toxicity, organism-based; set-up: dose 10 mg/kg, route intravenous; conditions: in vivo
[18] = tested on: Cavia porcellus; experiment: Cardiotoxicity in guinea pig hemodynamic model assessed as QTc at 10 mg/kg, iv; assay type: toxicity, organism-based; set-up: dose 10 mg/kg, route intravenous; conditions: in vivo
[19] = tested on: Cavia porcellus; experiment: Cardiotoxicity in guinea pig hemodynamic model assessed as heart rate at 10 mg/kg, iv; assay type: toxicity, organism-based; set-up: dose 10 mg/kg, route intravenous; conditions: in vivo
[20] = Cmax in mouse at 10 mg/kg, po; assay type: ADME, organism-based; set-up: dose 10 mg/kg, route oral; conditions: in vivo

Sequence of C-C chemokine receptor type 2 (P41597 whole entry): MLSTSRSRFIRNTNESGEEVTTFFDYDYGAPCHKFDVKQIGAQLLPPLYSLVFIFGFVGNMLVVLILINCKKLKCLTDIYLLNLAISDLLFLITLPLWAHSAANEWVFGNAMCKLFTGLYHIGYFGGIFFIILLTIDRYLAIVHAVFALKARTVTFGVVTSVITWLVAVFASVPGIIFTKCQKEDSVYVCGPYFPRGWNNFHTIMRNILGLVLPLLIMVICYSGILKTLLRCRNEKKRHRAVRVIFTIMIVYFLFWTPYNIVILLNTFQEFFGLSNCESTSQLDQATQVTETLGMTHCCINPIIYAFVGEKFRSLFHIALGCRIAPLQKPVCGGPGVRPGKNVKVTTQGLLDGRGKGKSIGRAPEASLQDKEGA
T1 sequence (Q12809 whole entry): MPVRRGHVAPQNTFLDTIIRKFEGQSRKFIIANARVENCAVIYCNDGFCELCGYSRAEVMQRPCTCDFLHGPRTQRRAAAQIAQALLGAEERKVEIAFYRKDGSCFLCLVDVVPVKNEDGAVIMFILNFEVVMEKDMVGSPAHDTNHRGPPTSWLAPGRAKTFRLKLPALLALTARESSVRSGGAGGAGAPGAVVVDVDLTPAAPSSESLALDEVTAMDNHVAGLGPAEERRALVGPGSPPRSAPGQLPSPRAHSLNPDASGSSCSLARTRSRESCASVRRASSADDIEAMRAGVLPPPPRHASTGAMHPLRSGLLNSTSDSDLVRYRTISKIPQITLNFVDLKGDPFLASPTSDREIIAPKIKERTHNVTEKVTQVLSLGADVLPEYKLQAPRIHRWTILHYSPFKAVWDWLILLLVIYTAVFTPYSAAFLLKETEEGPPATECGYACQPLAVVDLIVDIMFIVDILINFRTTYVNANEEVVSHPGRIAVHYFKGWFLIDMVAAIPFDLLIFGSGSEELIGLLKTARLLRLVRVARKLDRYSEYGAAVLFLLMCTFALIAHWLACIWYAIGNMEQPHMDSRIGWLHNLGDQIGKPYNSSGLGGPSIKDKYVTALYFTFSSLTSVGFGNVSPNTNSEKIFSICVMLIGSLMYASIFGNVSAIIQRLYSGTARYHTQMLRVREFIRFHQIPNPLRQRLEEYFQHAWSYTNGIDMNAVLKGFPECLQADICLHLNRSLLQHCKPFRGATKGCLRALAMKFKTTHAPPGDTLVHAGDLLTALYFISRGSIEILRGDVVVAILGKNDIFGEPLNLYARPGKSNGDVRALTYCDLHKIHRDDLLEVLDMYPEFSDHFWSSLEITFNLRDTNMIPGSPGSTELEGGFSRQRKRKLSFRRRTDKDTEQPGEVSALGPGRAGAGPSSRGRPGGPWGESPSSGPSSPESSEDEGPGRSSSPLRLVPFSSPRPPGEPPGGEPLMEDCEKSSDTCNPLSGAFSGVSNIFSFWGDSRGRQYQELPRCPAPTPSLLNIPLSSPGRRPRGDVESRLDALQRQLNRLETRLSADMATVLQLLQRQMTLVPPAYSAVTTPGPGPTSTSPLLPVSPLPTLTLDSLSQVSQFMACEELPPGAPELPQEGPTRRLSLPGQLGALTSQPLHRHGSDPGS
Sequence of C-C chemokine receptor type 2 (Mus musculus) (P51683 whole entry, looked up): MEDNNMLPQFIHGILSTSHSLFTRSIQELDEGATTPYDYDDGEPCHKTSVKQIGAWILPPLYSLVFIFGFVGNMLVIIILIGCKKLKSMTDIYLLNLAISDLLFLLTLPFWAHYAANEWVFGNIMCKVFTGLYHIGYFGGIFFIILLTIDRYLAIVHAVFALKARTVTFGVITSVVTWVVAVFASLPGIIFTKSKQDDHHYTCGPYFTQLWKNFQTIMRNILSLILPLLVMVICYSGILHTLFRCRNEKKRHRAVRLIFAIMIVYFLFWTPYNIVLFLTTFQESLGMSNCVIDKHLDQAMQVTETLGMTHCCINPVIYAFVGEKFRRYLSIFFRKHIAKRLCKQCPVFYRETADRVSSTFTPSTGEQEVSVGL

## NC(=O)C(NC1CCC(c2c[nH]c3ccccc23)CC1)C1CN(C(=O)/C=C/c2cc(F)c(F)c(F)c2)C1 (centres undefined)
[1]
  IC50: > 25 µM

## CN(C)c1ccc(/C=C/C(=O)N2CCC(C(NC3CCC(c4c[nH]c5ccccc45)CC3)C(N)=O)CC2)cc1 (centres undefined)
[1]
  IC50: 1.89 µM
[2]
  INH: > 50 µM

## NC(=O)C(NC1CCC(c2c[nH]c3ccccc23)CC1)C1CCN(C(=O)/C=C/c2ccc(C(F)(F)F)cc2)CC1 (centres undefined)
[2]
  INH: 1.08 µM

## CN(C1CCC(c2c[nH]c3ccccc23)CC1)C(C(=O)O)C1CCN(C(=O)/C=C/c2cc(F)c(F)c(F)c2)CC1 (centres undefined)
[1]
  IC50: 8.1 µM

## COC(=O)C(NC1CCC(c2c[nH]c3ccccc23)CC1)C1CCN(C(=O)/C=C/c2cc(F)c(F)c(F)c2)CC1 (centres undefined)
[1]
  IC50: 0.9 µM
[2]
  INH: 2.2 µM

## NC(=O)C(NC1CCC(c2c[nH]c3ccccc23)CC1)C1CCN(C(=O)/C=C/c2c(F)cccc2F)CC1 (centres undefined)
[1]
  IC50: > 25 µM
[2]
  INH: 3.734 µM

## NC(=O)C(NC1CCC(c2c[nH]c3ccccc23)CC1)C1CCN(C(=O)/C=C/c2cc(F)cc(F)c2)CC1 (single isomer, unassigned; (-))
[2]
  INH: 20.375 µM

## CN(C)C(=O)C(NC1CCC(c2c[nH]c3ccccc23)CC1)C1CCN(C(=O)/C=C/c2cc(F)c(F)c(F)c2)CC1 (centres undefined)
[2]
  INH: 4.4 µM

## O=C(/C=C/c1cc(F)c(F)c(F)c1)N1CCC(C(CO)NC2CCC(c3c[nH]c4ccccc34)CC2)CC1 (centres undefined)
[1]
  IC50: 9.2 µM
[2]
  INH: 0.52 µM

## NC(=O)C(NC1CCC(c2c[nH]c3ccccc23)CC1)C1CCN(C(=O)/C=C/c2cccc(F)c2)CC1 (centres undefined)
[1]
  IC50: 0.064 µM
[2]
  INH: 2.076 µM

## NC(=O)C(NC1CCC(c2c[nH]c3ccccc23)CC1)C1CCN(C(=O)/C=C/c2ccccc2)CC1 (centres undefined)
[2]
  INH: 7.35 µM

## NC(=O)C(NC1CCC(c2c[nH]c3ccncc23)CC1)C1CCN(C(=O)/C=C/c2cc(F)c(F)c(F)c2)CC1 (centres undefined)
[1]
  IC50: 0.083 µM
[2]
  INH: 0.97 µM

## O=C(/C=C/c1cc(F)c(F)c(F)c1)N1CCC(CNC2CCC(c3c[nH]c4ccccc34)CC2)CC1 (centres undefined)
[1]
  IC50: 25 µM

## NC(=O)C(NC1CCC(c2c[nH]c3ncccc23)CC1)C1CCN(C(=O)/C=C/c2cc(F)c(F)c(F)c2)CC1 (centres undefined)
[2]
  INH: 8.3 µM

## NC(=O)C(NC1CCC(c2c[nH]c3ccccc23)CC1)C1CCN(C(=O)Cc2ccccc2)CC1 (centres undefined)
[1]
  IC50: > 25 µM
[2]
  INH: 17.636 µM

## CC(NC1CCC(c2c[nH]c3ccccc23)CC1)C1CCN(C(=O)/C=C/c2cc(F)c(F)c(F)c2)CC1 (centres undefined)
[1]
  IC50: 8.6 µM
[2]
  INH: 0.29 µM

## NC(=O)C(NC1CCc2ccccc21)C1CCN(C(=O)/C=C/c2cc(F)c(F)c(F)c2)CC1 (centres undefined)
[1]
  IC50: 2.3 µM

## NC(=O)C(NC1CCC(c2c[nH]c3ccccc23)CC1)C1CCN(C(=O)C2CC2c2ccccc2)CC1 (mixture of isomers)
[1]
  IC50: 1.3 µM

## COc1ccc(C2CCC(NC(C(N)=O)C3CCN(C(=O)/C=C/c4cc(F)c(F)c(F)c4)CC3)CC2)cn1 (centres undefined)
[2]
  INH: 11.7 µM

## NC(=O)C(NC1CCC(c2c[nH]c3cccnc23)CC1)C1CCN(C(=O)/C=C/c2cc(F)c(F)c(F)c2)CC1 (centres undefined)
[1]
  IC50: 0.035 µM
[2]
  INH: 6.3 µM

## CNC(=O)C(NC1CCC(c2c[nH]c3ccccc23)CC1)C1CCN(C(=O)/C=C/c2cc(F)c(F)c(F)c2)CC1 (centres undefined)
[2]
  INH: 5.4 µM

## NC(=O)C(NC1CCC(c2c[nH]c3ccccc23)CC1)C1CCN(C(=O)/C=C\c2cc(F)cc(F)c2)CC1 (cis isomer)
[2]
  INH: 2.2 µM

## NC(=O)C(NC1CCC(c2c[nH]c3ccccc23)CC1)C1CCN(C(=O)/C=C/c2ccc(F)c(F)c2)CC1 (centres undefined)
[1]
  IC50: 0.038 µM
[2]
  INH: 1.714 µM

## NC(=O)C(NC1CCC(C2CNc3ccccc32)CC1)C1CCN(C(=O)/C=C/c2cc(F)c(F)c(F)c2)CC1 (centres undefined)
[1]
  IC50: 0.95 µM
[2]
  INH: 4.2 µM

## NC(=O)C(NC1CCC(c2c[nH]c3ccccc23)CC1)C1CCN(C(=O)/C=C/c2cc(F)cc(F)c2)CC1 (trans isomer)
[2]
  INH: 6.6 µM

## NC(=O)C(NC1CCC(c2c[nH]c3ccccc23)CC1)C1CCN(C(=O)/C=C/c2ccc(F)cc2)CC1 (centres undefined)
[1]
  IC50: 0.036 µM
[2]
  INH: 2.02 µM

## O=C(O)C(NC1CCC(c2c[nH]c3ccccc23)CC1)C1CCN(C(=O)/C=C/c2cc(F)c(F)c(F)c2)CC1 (centres undefined)
[1]
  IC50: 0.05 µM
[2]
  INH: 31 µM

## NC(=O)C(NC1Cc2ccccc2C1)C1CCN(C(=O)/C=C/c2cc(F)c(F)c(F)c2)CC1 (centres undefined)
[1]
  IC50: 1.4 µM

## CS(=O)(=O)c1ccc(/C=C/C(=O)N2CCC(C(NC3CCC(c4c[nH]c5ccccc45)CC3)C(N)=O)CC2)cc1 (centres undefined)
[1]
  IC50: 11.6 µM
[2]
  INH: > 50 µM

## O=C1NC2(CCC(c3c[nH]c4ccccc34)CC2)NC1C1CCN(C(=O)/C=C/c2cc(F)c(F)c(F)c2)CC1 (centres undefined)
[1]
  IC50: 5.2 µM

## NC(=O)C(NC1CCC(c2c[nH]c3ccccc23)CC1)C1CCN(C(=O)CCc2ccccc2)CC1 (centres undefined)
[1]
  IC50: > 25 µM

## O=C(O)C(C1CCN(C(=O)/C=C/c2cc(F)c(F)c(F)c2)CC1)N1CCC(c2c[nH]c3ccccc23)CC1 (centres undefined)
[2]
  INH: 1.5 µM

## NC(=O)C(NC1CCP(=O)(c2ccccc2)CC1)C1CCN(C(=O)/C=C/c2cc(F)c(F)c(F)c2)CC1 (centres undefined)
[1]
  IC50: > 25 µM

## NC(=O)C(NC1CCC(c2c[nH]c3ccccc23)CC1)C1CCN(C(=O)/C=C/c2ccc(OC(F)(F)F)cc2)CC1 (centres undefined)
[2]
  INH: 1.39 µM

## NC(=O)C(NC1CCC(c2c[nH]c3ccccc23)CC1)C1CCN(C(=O)/C=C/c2ccccc2F)CC1 (centres undefined)
[2]
  INH: 4.128 µM

## CC(C)C1CCC(NC(C(N)=O)C2CCN(C(=O)/C=C/c3cc(F)c(F)c(F)c3)CC2)CC1 (centres undefined)
[1]
  IC50: 15.8 µM
[2]
  INH: 6.2 µM

## NC(=O)C(NC1CCC(c2c[nH]c3ccccc23)CC1)C1CCN(C(=O)/C=C/c2cc(F)cc(F)c2)CC1 (racemic) [listing 1 of 2 here]
[3]
  inhibition: inactive
[4]
  Activity: Active

## NC(=O)C(NC1CCC(c2c[nH]c3ccccc23)CC1)C1CCN(C(=O)Nc2ccccc2)CC1 (centres undefined)
[1]
  IC50: 9.57 µM
[2]
  INH: 14.784 µM

## NC(=O)C(NC1CCC(c2ccccc2)C1)C1CCN(C(=O)/C=C/c2cc(F)c(F)c(F)c2)CC1 (centres undefined)
[1]
  IC50: 1.3 µM

## O=C(NO)C(NC1CCC(c2c[nH]c3ccccc23)CC1)C1CCN(C(=O)/C=C/c2cc(F)c(F)c(F)c2)CC1 (centres undefined)
[2]
  INH: 41 µM

## NC(=O)C(NC1CCC(c2c[nH]c3cnccc23)CC1)C1CCN(C(=O)/C=C/c2cc(F)c(F)c(F)c2)CC1 (centres undefined)
[1]
  IC50: 2.2 µM
[2]
  INH: < 0.2 µM

## NC(=O)C(NC1CCC(c2c[nH]c3ccccc23)CC1)C1CCN(C(=O)/C=C/c2ccc(Cl)cc2)CC1 (centres undefined)
[2]
  INH: 0.87 µM

## NC(=O)C(NC1CCC(c2c[nH]c3ccccc23)CC1)C1CCN(C(=O)c2ccccc2)CC1 (centres undefined)
[1]
  IC50: > 25 µM
[2]
  INH: 5.471 µM

## NC(=O)C(NC1CCC(c2ccccc2)CC1)C1CCN(C(=O)/C=C/c2cc(F)c(F)c(F)c2)CC1 (centres undefined)
[1]
  IC50: 6 µM
[2]
  INH: 3.4 µM

## NC(=O)C(NC1CCC(c2c[nH]c3ccccc23)CC1)C1CCN(C(=O)/C=C/c2cc(F)c(F)c(F)c2)CC1 (centres undefined)
[2]
  INH: 3.3 µM

## NC(=O)C(NC1CCC(c2c[nH]c3ccccc23)CC1)C1CCN(Cc2ccccc2)CC1 (centres undefined)
[1]
  IC50: > 25 µM
[2]
  INH: 1.769 µM

## NC(=O)C(NC1CCC(c2c[nH]c3ccccc23)CC1)C1CCN(C(=O)/C=C/c2cc(F)cc(F)c2)CC1 (racemic) [listing 2 of 2 here]
[5]
  Vd: 3.71 L/kg
[6]
  INH: 8 µM
[7]
  Activity: Non-toxic
[8]
  clearance: 1.86 L/h/kg
[9]
  Activity: Non-toxic
[10]
  half-life: 1.9 h
[11]
  half-life: 2.4 h
[12]
  Activity: Non-toxic
[13]
  AUC: 2.42 µg·h/mL
[14]
  C0: 1.02 µg/mL
[2]
  INH: 4.906 µM
[15]
  bioavailability: 50%
[16]
  INH: 600 nM
[17]
  Activity: Non-toxic
[18]
  Activity: Non-toxic
[19]
  Activity: Non-toxic
[20]
  Cmax: 0.531 µg/mL
